Broadly, the CC50 is the concentration at which the toxic effect on the cells reaches its halfway point. Higher therefore signals better tolerance by the cells.

In ChEMBL document CHEMBL4513149, “CO-ADD screening of MMV (CH) - MMV compounds” (2021) one finds CC50 and MIC data, which are given here for 24 compounds.

Values after ≈ are worked out from the molar mass of the structure shown.

The test system of experiment [1] is HEK293. The experiment is described as follows: cells. The settings on record: Homo sapiens, ATCC CRL1573, HEK293; ASSAY_TEST Inhibition of Cell Viability; detection method Resazurin; Fluorescence (ex560/em590); MEDIA DMEM with 10% FBS; plate type 384well; TC; CORNING #3712; time 18 hr. Format: functional. A general note: Alamar Blue is a resazurin reagent that responds to reducing activity.

The test system of experiment [2] is Cryptococcus neoformans.
Description: Antifungal activity against Cryptococcus neoformans H99 ATCC 208821 (CO-ADD:FG_002); MIC in YNB media using NBS plates, by Resazurin OD(600-570)
The test system of experiment [3] is Staphylococcus aureus. Put plainly: microbe, parasite or virus in culture. The settings on record: ATCC 43300, 18 h, ASSAY_TEST Inhibition of Bacterial Growth, detection method Absorption (OD600), MEDIA CAMHB, plate type 384well, NBS, CORNING #3640.
Description: Antibacterial activity against Staphylococcus aureus MRSA ATCC 43300 (CO-ADD:GP_020); MIC in CAMBH media, using NBS plates, by OD(600)
The test system of experiment [4] is Escherichia coli. The experiment is described as follows: microbe, parasite or virus in culture. The settings on record: ATCC 25922, 18 h, ASSAY_TEST Inhibition of Bacterial Growth, detection method Absorption (OD600), MEDIA CAMHB, plate type 384well, NBS, CORNING #3640.
Description: Antibacterial activity against Escherichia coli ATCC 25922 (CO-ADD:GN_001); MIC in CAMBH media using NBS plates, by OD(600)
In experiment [5] the test system is Klebsiella pneumoniae. Put plainly: microbe, parasite or virus in culture. Conditions: ATCC 700603, 18 h, ASSAY_TEST Inhibition of Bacterial Growth, detection method Absorption (OD600), MEDIA CAMHB, plate type 384well, NBS, CORNING #3640.
Description: Antibacterial activity against Klebsiella pneumoniae MDR ATCC 70063 (CO-ADD:GN_003); MIC in CAMBH media using NBS plates, by OD(600)
In experiment [6] the test system is Pseudomonas aeruginosa. Put plainly: microbe, parasite or virus in culture. The settings on record: ATCC 27853, 18 h, ASSAY_TEST Inhibition of Bacterial Growth, detection method Absorption (OD600), MEDIA CAMHB, plate type 384well, NBS, CORNING #3640.
Description: Antibacterial activity against Pseudomonas aeruginosa ATCC 27853 (CO-ADD:GN_042); MIC in CAMBH media using NBS plates, by OD(600)
Experiment [7] has as its system Acinetobacter baumannii. The experiment is described as follows: microbe, parasite or virus in culture. The settings on record: ATCC 19606, 18 h, ASSAY_TEST Inhibition of Bacterial Growth, detection method Absorption (OD600), MEDIA CAMHB, plate type 384well, NBS, CORNING #3640.
Description: Antibacterial activity against Acinetobacter baumannii ATCC 19606 (CO-ADD:GN_034); MIC in CAMBH media using NBS plates, by OD600
In experiment [8] the test system is Candida albicans. The experiment is described as follows: microbe, parasite or virus in culture. Conditions: ATCC 90028, ASSAY_TEST Inhibition of Fungal Growth, detection method Absorption (OD530), plate type 384well, NBS, CORNING #3640.
Description: Antifungal activity against Candida albicans ATCC 90028 (CO-ADD:FG_001); MIC in YNB media using NBS plates, by OD630

`COc1cccc(-n2nnnc2S(C)(=O)=O)c1` registered a CC50 in experiment [1] of 2.96 µM. Further, the MIC in experiment [2], in experiment [3], in experiment [4], in experiment [5], in experiment [6] and in experiment [7] was more than 10 µM in each case. This compound also displayed an MIC in experiment [8] of more than 10 µM.
On to `O=C(Nc1cccnc1)c1c(O)c2cccc3c2n(c1=O)CC3`, for which the CC50 in experiment [1] is more than 10 µM. Moreover, the MIC in experiment [2], in experiment [3], in experiment [4], in experiment [5], in experiment [6] and in experiment [7] was more than 10 µM in each case. The compound also showed an MIC in experiment [8] of more than 10 µM.
In experiment [1], `N=C(N)Nc1ccc(-c2ccc(-c3ccc(NC(=N)N)cc3Cl)o2)c(Cl)c1` showed a CC50 of more than 10 µM. Besides, the MIC was 1.25 µM (≈ 0.504 µg/mL) in experiment [2]; 1.25 µM (≈ 0.504 µg/mL) in experiment [3]; 5 µM (≈ 2.02 µg/mL) in experiment [4]; 10 µM (≈ 4.03 µg/mL) in experiment [5]; 10 µM (≈ 4.03 µg/mL) in experiment [6]; 5 µM (≈ 2.02 µg/mL) in experiment [7]. In experiment [8], the MIC came to 2.5 µM (≈ 1.01 µg/mL).
Compound `Nc1nc2cc(-c3cncc(Oc4ccc(F)cc4)c3)ccc2[nH]1` returned a CC50 in experiment [1] of more than 10 µM. Also, the MIC in experiment [2], in experiment [3], in experiment [4], in experiment [5], in experiment [6] and in experiment [7] was more than 10 µM in each case. The same compound yielded an MIC in experiment [8] of more than 10 µM.
As for `O=C(Nc1ccc(C(F)(F)F)c(C(F)(F)F)c1)c1cc(Cl)ccc1O`, the CC50 in experiment [1] is more than 10 µM. Further, the MIC in experiment [2], in experiment [3], in experiment [4], in experiment [5], in experiment [6] and in experiment [7] was more than 10 µM in each case. Besides, the MIC in experiment [8] is more than 10 µM.
In experiment [1], `Cc1cc(NC(=O)c2ccc(Oc3ccc(Cl)cc3O)o2)no1` showed a CC50 of more than 10 µM. In addition, the MIC in experiment [2], in experiment [3], in experiment [4], in experiment [5], in experiment [6] and in experiment [7] was more than 10 µM in each case. In addition, the MIC in experiment [8] was more than 10 µM.
In turn, `O=C(Nc1ccc2c(c1)B(O)OC2)c1ccccc1C(F)(F)F` came in with a 50% cytotoxic concentration (CC50) in experiment [1] of more than 10 µM. In addition, the MIC in experiment [2], in experiment [3], in experiment [4], in experiment [5], in experiment [6] and in experiment [7] was more than 10 µM each time. The compound also came in with an MIC in experiment [8] of more than 10 µM.
`Clc1cccc(C(c2ccc(CN3CCNCC3)cc2)n2ccnc2)c1` (configuration not stated): the CC50 in experiment [1] was more than 10 µM. Besides, the MIC in experiment [2], in experiment [3], in experiment [4], in experiment [5], in experiment [6] and in experiment [7] was more than 10 µM each time. For the same compound, the MIC in experiment [8] is more than 10 µM.
Turning to `CCN(CC)S(=O)(=O)c1ccc(C(=O)Nc2cc(C)nn2-c2nc(C)c(C)c(=O)[nH]2)cc1`, the CC50 in experiment [1] is more than 10 µM. For the same compound, the MIC in experiment [2], in experiment [3], in experiment [4], in experiment [5], in experiment [6] and in experiment [7] was more than 10 µM throughout. In experiment [8], this compound gave an MIC of more than 10 µM.
`COc1ccc2nccc(NC(=O)C3CCN(CCc4ccc(Cl)cc4)CC3)c2n1` displayed a CC50 in experiment [1] of more than 10 µM. For the same compound, the MIC is more than 10 µM in experiment [2]; 1.25 µM (≈ 0.531 µg/mL) in experiment [3]; more than 10 µM in experiment [4]; more than 10 µM in experiment [5]; more than 10 µM in experiment [6]; more than 10 µM in experiment [7]. In experiment [8], this compound had an MIC of more than 10 µM.
As to `O=C1O[C@@H](COc2ccon2)CN1c1cc(F)c(C2=CCN(Cc3ccccc3)CC2)c(F)c1`, in experiment [1], the CC50 was more than 10 µM. For the same compound, the MIC in experiment [2], in experiment [3], in experiment [4], in experiment [5], in experiment [6] and in experiment [7] was more than 10 µM in each case. Also, in experiment [8], the MIC is more than 10 µM.
The compound `CC(=O)NCC1CN(c2ccc(-c3ccc(CO)cc3)c(F)c2)C(=O)O1` (configuration not stated) came in with a 50% cytotoxic concentration (CC50) in experiment [1] of more than 10 µM. Besides, the MIC in experiment [2] was more than 10 µM; in experiment [3], 1.25 µM (≈ 0.448 µg/mL); in experiment [4], more than 10 µM; in experiment [5], more than 10 µM; in experiment [6], more than 10 µM; in experiment [7] it was more than 10 µM. In experiment [8], this compound gave an MIC of more than 10 µM.
In turn, `CN1CCN(CCCOc2ncc(Nc3ncc(-c4ccc(C(F)(F)F)c(F)c4)nc3C(N)=O)cn2)CC1` showed a CC50 in experiment [1] of more than 10 µM. Also, the MIC in experiment [2], in experiment [3], in experiment [4], in experiment [5], in experiment [6] and in experiment [7] was more than 10 µM in each case. Further, in experiment [8], the MIC is more than 10 µM.
With `Cn1c(=O)c2c(S(C)(=O)=O)snc2n(C)c1=O`, the CC50 in experiment [1] was 9.72 µM. In addition, the MIC in experiment [2], in experiment [3], in experiment [4], in experiment [5], in experiment [6] and in experiment [7] was more than 10 µM each time. Further, the MIC in experiment [8] was more than 10 µM.
`Nc1ccc2ncnc(Nc3ccc(OCc4cccc(F)c4)c(Cl)c3)c2c1` returned a CC50 in experiment [1] of more than 10 µM. Further, the MIC in experiment [2], in experiment [3], in experiment [4], in experiment [5], in experiment [6] and in experiment [7] was more than 10 µM throughout. In experiment [8], this compound displayed an MIC of more than 10 µM.
As for `Cc1[nH]c2ccccc2c1C(c1cccs1)N1CCN(C)CC1` (configuration not stated), the CC50 in experiment [1] was more than 10 µM. Moreover, the MIC in experiment [2], in experiment [3], in experiment [4], in experiment [5], in experiment [6] and in experiment [7] was more than 10 µM each time. In addition, in experiment [8], the MIC was found to be 5 µM (≈ 1.63 µg/mL).
Compound `CC(=O)NCC1CN(c2ccc(-c3ccc(CNCc4cn[nH]n4)cc3)c(F)c2)C(=O)O1` (configuration not stated) registered a CC50 in experiment [1] of more than 10 µM. Besides, the MIC in experiment [2] was more than 10 µM; in experiment [3] it was 10 µM (≈ 4.38 µg/mL); in experiment [4], more than 10 µM; in experiment [5] it was more than 10 µM; in experiment [6] it was more than 10 µM; in experiment [7] it was more than 10 µM. The MIC in experiment [8] was more than 10 µM.
In the case of `N=C(N)Nc1ccc(-c2ccc(-c3ccc(N=C(N)N)c(Cl)c3)o2)cc1Cl`, in experiment [1], the CC50 was more than 10 µM. Further, the MIC was more than 10 µM in experiment [2]; 10 µM (≈ 4.03 µg/mL) in experiment [3]; more than 10 µM in experiment [4]; more than 10 µM in experiment [5]; more than 10 µM in experiment [6]; more than 10 µM in experiment [7]. The compound further came in with an MIC in experiment [8] of more than 10 µM.
`O=C(Nc1ccc(N2CCNCC2)cc1)c1ccn2ncc(-c3cccc(Cl)c3)c2n1` came in with a CC50 in experiment [1] of 9.02 µM. Besides, the MIC in experiment [2], in experiment [3], in experiment [4], in experiment [5], in experiment [6] and in experiment [7] was more than 10 µM in each case. In experiment [8], this compound registered an MIC of more than 10 µM.
In turn, `c1cncc(NCc2ccc(-c3cc4ccncc4cc3OC3CCNCC3)s2)c1` showed a CC50 in experiment [1] of more than 10 µM. Moreover, the MIC in experiment [2], in experiment [3], in experiment [4], in experiment [5], in experiment [6] and in experiment [7] was more than 10 µM in each case. The MIC in experiment [8] is more than 10 µM.
Take `Cc1cc(NCCc2ccccc2)nc(NC(=N)Nc2ccc(Cl)cc2)n1`: the CC50 in experiment [1] was more than 10 µM. For the same compound, the MIC in experiment [2], in experiment [3], in experiment [4], in experiment [5], in experiment [6] and in experiment [7] was more than 10 µM in each case. Also, the MIC in experiment [8] was more than 10 µM.
For `c1ccc(-c2nc(NC3CCCCC3)cc(C3CC3)n2)nc1`, the CC50 in experiment [1] was more than 10 µM. Further, the MIC in experiment [2] is more than 10 µM; in experiment [3], 10 µM (≈ 2.94 µg/mL); in experiment [4], more than 10 µM; in experiment [5] it was more than 10 µM; in experiment [6] it was more than 10 µM; in experiment [7] it was more than 10 µM. The MIC in experiment [8] was more than 10 µM.
As to `Cc1ccc2c(c1C)NC(=O)C21NN=C(c2ccccc2)S1` (configuration not stated), the CC50 in experiment [1] was more than 10 µM. Further, the MIC in experiment [2], in experiment [3], in experiment [4], in experiment [5], in experiment [6] and in experiment [7] was more than 10 µM each time. In addition, in experiment [8], the MIC was more than 10 µM.
Take `CC(=O)NC[C@@H]1CN(c2ccc(N3CCOCC3)c(F)c2)C(=O)O1`: the CC50 in experiment [1] is more than 10 µM. For the same compound, the MIC in experiment [2] is more than 10 µM; in experiment [3], 2.5 µM (≈ 0.843 µg/mL); in experiment [4], more than 10 µM; in experiment [5], more than 10 µM; in experiment [6] it was more than 10 µM; in experiment [7] it was more than 10 µM. Also, the MIC in experiment [8] is more than 10 µM.
